Experimental data: patent US7527934B2, “Labeled substrate conjugates for identifying enzyme inhibitors” (priority 2004, dated 2009)
Read-outs that look alike come from different tables or passages of the source.

What was measured:
[1] = target: Clostridium perfringens neuraminidase; assay type: biochemical; settings: for IC50: pH 6.5, read-out: Solution phase IC50, Clostridium perfringens
[2] = target: T1, Salmonella typhimurium neuraminidase (Salmonella typhimurium, UniProt P29768); assay: biochemical; assay type: biochemical
T1 construct: purchased Sigma

[3] = target: T2, Vibrio cholerae neuraminidase (Vibrio cholerae serotype O1, UniProt P0C6E9); assay: biochemical; assay type: biochemical
T2 construct: purchased Sigma

[4] = target: T1, Salmonella typhimurium neuraminidase; settings: value in brackets marked lit; read-out: Solution phase IC50, Salmonella typhimurium, literature value; cited from earlier work
[5] = target: T3, α2,6-sialyltransferase (Rattus norvegicus, UniProt P13721); settings: read-out: KM value; literature (Gross et al. 1989); cited from earlier work
T3 sequence (P13721 1-403): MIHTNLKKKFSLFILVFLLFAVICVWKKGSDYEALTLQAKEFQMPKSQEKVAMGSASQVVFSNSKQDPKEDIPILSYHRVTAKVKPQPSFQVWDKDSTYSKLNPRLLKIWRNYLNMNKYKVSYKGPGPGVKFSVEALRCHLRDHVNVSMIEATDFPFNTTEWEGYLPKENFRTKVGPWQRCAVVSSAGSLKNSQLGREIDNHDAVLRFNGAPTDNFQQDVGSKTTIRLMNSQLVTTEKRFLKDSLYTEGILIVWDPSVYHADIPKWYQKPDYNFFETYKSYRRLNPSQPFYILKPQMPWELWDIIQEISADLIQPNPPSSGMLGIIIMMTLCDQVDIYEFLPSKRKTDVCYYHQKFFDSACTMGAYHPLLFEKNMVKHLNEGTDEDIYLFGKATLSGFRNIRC

[6] = target: T3, α2,6-sialyltransferase; assay: Sialyltransferase competitive assay; assay type: biochemical; set-up: purchased Calbiochem
[7] = tested on: α2,3-sialyltransferase; assay: Substrate recognition by sialyltransferase (FRET donor/acceptor); assay type: biochemical; settings: acceptor 0.2 mM, donor 0.1 mM, sialyltransferase 0.2 mU, FIG. 15
[8] = target: T3, α2,6-sialyltransferase; assay: as above; assay type: biochemical; set-up: purchased Calbiochem; settings: acceptor 0.2 mM, donor 0.1 mM, sialyltransferase 0.2 mU, FIG. 15

T1 sequence (P29768 whole entry): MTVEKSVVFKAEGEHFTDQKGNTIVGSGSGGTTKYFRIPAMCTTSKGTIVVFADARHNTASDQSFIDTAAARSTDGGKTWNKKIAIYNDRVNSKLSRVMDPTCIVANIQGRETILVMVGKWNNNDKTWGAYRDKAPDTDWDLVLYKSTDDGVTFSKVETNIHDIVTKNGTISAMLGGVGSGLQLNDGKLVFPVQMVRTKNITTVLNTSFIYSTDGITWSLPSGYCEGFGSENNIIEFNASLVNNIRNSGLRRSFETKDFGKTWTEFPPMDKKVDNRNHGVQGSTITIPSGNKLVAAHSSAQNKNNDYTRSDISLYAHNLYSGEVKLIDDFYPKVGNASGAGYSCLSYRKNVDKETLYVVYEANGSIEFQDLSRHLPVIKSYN
T2 sequence (P0C6E9 25-781 limits assumed): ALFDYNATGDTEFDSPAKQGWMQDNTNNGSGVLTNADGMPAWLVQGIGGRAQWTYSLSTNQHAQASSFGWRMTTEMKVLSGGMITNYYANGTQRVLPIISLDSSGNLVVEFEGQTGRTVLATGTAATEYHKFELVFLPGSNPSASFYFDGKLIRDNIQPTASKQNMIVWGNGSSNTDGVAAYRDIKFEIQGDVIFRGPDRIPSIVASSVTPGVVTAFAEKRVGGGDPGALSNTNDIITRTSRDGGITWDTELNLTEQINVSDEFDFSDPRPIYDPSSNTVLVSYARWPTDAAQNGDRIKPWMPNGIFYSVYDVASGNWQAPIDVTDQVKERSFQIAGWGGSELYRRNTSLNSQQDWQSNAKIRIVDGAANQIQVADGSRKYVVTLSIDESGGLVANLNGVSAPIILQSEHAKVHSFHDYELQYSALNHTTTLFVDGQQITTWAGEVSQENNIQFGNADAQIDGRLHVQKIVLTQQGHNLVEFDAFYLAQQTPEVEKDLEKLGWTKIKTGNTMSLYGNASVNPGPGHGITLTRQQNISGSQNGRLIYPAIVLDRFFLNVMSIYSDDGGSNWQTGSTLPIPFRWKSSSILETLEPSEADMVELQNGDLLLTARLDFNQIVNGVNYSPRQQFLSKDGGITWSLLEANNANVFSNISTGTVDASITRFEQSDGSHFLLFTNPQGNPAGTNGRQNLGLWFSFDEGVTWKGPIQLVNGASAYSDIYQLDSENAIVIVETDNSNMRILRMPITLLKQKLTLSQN

In the case of `CC(=O)NC1C(O)CC(O)(C(=O)O)OC1[C@H](O)[C@H](O)CO` (stereo partly shown), the IC50 [1] is reported as > 2000 µM, the IC50 [2] is reported as > 2000 µM and the IC50 [3] is reported as > 2000 µM.
With `CC(=O)NC1C(N)C=C(C(=O)O)OC1[C@H](O)[C@H](O)CO` (stereo partly shown) the IC50 [1] was > 2000 µM, the IC50 [2] was > 2000 µM and the IC50 [3] was > 2000 µM.
With `CC1=NC2C(O)C=C(C(=O)O)OC2C(CC(=O)N[C@@H](C(N)=O)C2CCCCC2)O1` (stereo partly shown) the IC50 [1] was 1600 µM, the IC50 [2] was > 2000 µM and the IC50 [3] was > 2000 µM.
With `CC(=O)NC1C(NC(=N)N)C=C(C(=O)O)OC1[C@H](OC(N)=O)[C@H](O)CO` (stereo partly shown) the IC50 [1] was > 2000 µM, the IC50 [2] was > 2000 µM and the IC50 [3] was 250 µM.
In the case of `CC(=O)NC1C(O)C=C(C(=O)O)OC1[C@H](O)[C@H](O)CO` (stereo partly shown) [2-deoxy-2,3-dehydro-N-acetylneuraminic acid], the “Inhibition of Clostridium perfringens neuraminidase” value [1] is reported as “good inhibitor”, the IC50 [1] is reported as 4 µM and the IC50 [2] is reported as 310 µM. The “Inhibition of Salmonella typhimurium neuraminidase” value [2] was “good inhibitor”, the “Inhibition of Vibrio cholerae neuraminidase” value [3] was “good inhibitor” and the IC50 [4] was 350 µM.
For `CC(=O)NC1C(NC(=N)N)C=C(C(=O)O)OC1[C@H](O)[C@H](O)CO` (stereo partly shown) [4-guanidino-2-deoxy-2,3-didehydro-N-acetylneuraminic acid], the IC50 [2] was > 2000 µM, the IC50 [3] was 200 µM and the “Inhibition of Vibrio cholerae neuraminidase” value [3] was “inhibitor”.
In the case of `CC(=O)NC1C(O)CC(OP(=O)(O)OC[C@H]2O[C@@H](n3ccc(N)nc3=O)[C@@H](O)C2O)(C(=O)O)OC1[C@H](O)[C@H](O)CO` (stereo partly shown) [CMP-Neu5Ac, cytidine monophosphate N-acetylneuraminic acid], the Km [5] is listed as 45 µM and the IC50 [6] is listed as 85 µM.
`NC(=O)C(Cc1ccc(O)c([N+](=O)[O-])c1)NC(=O)Cc1cc(=O)oc2cc(O)ccc12` (stereo not shown) [Compound 41, 3-(4-Hydroxy-3-nitro-phenyl)-2-[2-(7-hydroxy-2-oxo-2H-chromen-4-yl)-acetylamino]-propionamide] gave a melting point of 203 °C.
Compound `NC(=O)C(Cc1ccc(O)c([N+](=O)[O-])c1)NC(=O)CCC(=O)NCCOCCOCCNC(=O)Cc1cc(=O)oc2cc(O)ccc12` (stereo not shown) [Compound 42, N-[1-Carbamoyl-2-(4-hydroxy-3-nitro-phenyl)-ethyl]-N′-[2-(2-{2-[2-(7-hydroxy-2-oxo-2H-chromen-4-yl)-acetylamino]-ethoxy}-ethoxy)-ethyl]-succinamide] has a melting point of 115 °C.
With `N[C@@H](Cc1ccc(O)c([N+](=O)[O-])c1)C(=O)NCCO[C@@H]1O[C@H](CO)[C@@H](O[C@@H]2O[C@H](CO)[C@H](O)[C@H](O)[C@H]2O)[C@H](O)[C@H]1O` [acceptor 64, 2-(3-Nitro-L-tyrosyl-amide)ethyl β-D-galactopyransyl-(1→4)-O-β-D-glucopyranoside] the “Substrate recognition by α2,3-sialyltransferase” value [7] was “poor substrate recognition” and the “Substrate recognition by α2,6-sialyltransferase” value [8] was “poor substrate recognition”.
In the case of `CC(=O)N[C@H]1[C@H](OCCNC(=O)[C@@H](N)Cc2ccc(O)c([N+](=O)[O-])c2)O[C@H](CO)[C@@H](O[C@@H]2O[C@H](CO)[C@H](O)[C@H](O)[C@H]2O)[C@@H]1O` [acceptor 69, 2-(3-Nitro-L-tyrosyl-amide)ethyl β-D-galactopyransyl-(1→4)-O-2-acetamido-2-deoxy-β-D-glucopyranoside], the “Substrate recognition by α2,3-sialyltransferase” value [7] is reported as “good substrates” and the “Substrate recognition by α2,6-sialyltransferase” value [8] is reported as “good substrates”.
For “CMP-5-(7-hydroxy-4-coumarinyl-acetamido)-NeuAc [donor 55]”, the “Substrate recognition by α2,3-sialyltransferase” value [7] was “good substrates” and the “Substrate recognition by α2,6-sialyltransferase” value [8] was “good substrates”.
